Measurements as given in patent publication US20120065123A1, “Synthetic Antibodies” (priority 2009, published 2012).
Where no end group is shown, it is not given here.

Assays:
TNF-α [1] = target: T1, TNF-α (Homo sapiens, UniProt P01375); assay: SPR of TNF1 lead and mutant peptides on captured TNF-α (Biacore A100); format: binding
Description: Scanning Mutagenesis of the TNF1 Lead Peptide. After lead identification, the next step in the AMPLI algorithm is characterization of point mutations in the lead heteropolymer. Using short peptides makes it chemically feasible to synthesize a significant fraction of the point-mutant space, which can then be screened for enhanced point mutations. For example, all possible point mutations in the 17 randomized positions using all 20 natural amino acids could be synthesized and screened within a single 384-well plate (323 total point-mutants). However, libraries containing all 20 natural amino acids are not required for affinity optimization of protein-protein interactions. A library of TNF1 point-mutants containing all substitutions of the amino acid set {Y, A, D, S, K, N, V, W} in each of the 17 randomized positions (132 unique point-mutants) was synthesized. Tyrosine (Y), alanine (A), aspartic acid (D) and serine (S) were selected because of their effectiveness in producing high affinity interactions when substituted into the complementary-determining regions (CDRs) of synthetic antibodies (Felouse, Proceedings of the National Academy of Sciences 101(34):12467, 2004), lysine (K) was selected to balance the charge in the substitution set, asparagine (N), valine (V) and tryptophan (W) were selected to span the hydropathicity range (Kyte J & Doolittle R F, Journal of Molecular Biology 157(1):105-132, 1982). […] This concentration was used to increase the high-end dynamic range for quantifying enhancing point mutations at the expense of low-end dynamic range for quantifying detrimental point mutations.
Point-mutant libraries were prepared in 96-well stock plates From the stock plate, peptides were diluted to 50 μM concentration in Biacore HBS-EP buffer (GE Healthcare, Piscataway, N.J.) containing 1 mg/ml carboxymethyl-dextran (Sigma-Aldrich, St. Louis, Mo.) to reduce non-specific binding to the CM-5 SPR chip surface. TNF-α was captured on a CM-5 chip surface at different capture levels on spots 1, 2, 4, and 5 across all four flow cells corresponding to a 40-200 RU range of predicted Rmax binding responses. Spot 3 contained only immobilized neutravidin and served as a reference spot.
Using the prepared 96-well plates and Biacore A100 SPR instrument, four peptides were flowed separately, in parallel, through the four flow cells over all 4 TNF-α spots and the neutravidin reference spot, with a 60 second association phase and 300 second dissociation phase. SPR sensorgrams were recorded for each peptide response with all 4 TNF-α spots and the neutravidin reference spot across the four flow cells on the SPR chip. Surface regeneration was performed after every 12 injections in each flow cell with Biacore Glycine 2.5 regeneration solution (GE Healthcare, Piscataway, N.J.). Point-mutant reference subtracted, peptide molecular weight adjusted, responses at the late binding region of the sensorgram (a few seconds before dissociation) were compared to the response of the TNF1 lead
Purified point-mutant affinities were measured on the Biacore A100 using SPR equilibrium binding response across a series of peptide concentrations on an SPR chip with TNF-α captured as described above.
These sequences were synthesized and purified using standard solid-phase FMOC synthesis and HPLC purification.

TNF-α [2] = target: T1, TNF-α; assay: Fluorescence anisotropy validation of TNF1-opt affinity; format: binding
Procedure: Affinity Characterization of Double, Triple and Quadruple Mutants. […] In all cases, an improvement in TNF-α affinity was observed when an additional enhancing substitution was added to the sequence. Double mutants were better than the corresponding single mutants, triple mutants were better than the corresponding single/double mutants and the quadruple mutant was better than the corresponding single/double/triple mutants (FIG. 71, Table 2).

TNF-α [3] = target: T1, TNF-α; assay: SPR of TNF1 lead and mutant peptides on captured TNF-α (Biacore A100); format: binding; conditions: several sensorgrams; read-out: Kd determined from kinetic fits
Transferrin [4] = target: T2, Transferrin (Homo sapiens, UniProt P02787); assay: SPR solution phase KD of candidate affinity elements, transferrin immobilized (Biacore T100); format: binding; conditions: steady-state response, 25° C., PBST
T2 sequence (P02787 20-698): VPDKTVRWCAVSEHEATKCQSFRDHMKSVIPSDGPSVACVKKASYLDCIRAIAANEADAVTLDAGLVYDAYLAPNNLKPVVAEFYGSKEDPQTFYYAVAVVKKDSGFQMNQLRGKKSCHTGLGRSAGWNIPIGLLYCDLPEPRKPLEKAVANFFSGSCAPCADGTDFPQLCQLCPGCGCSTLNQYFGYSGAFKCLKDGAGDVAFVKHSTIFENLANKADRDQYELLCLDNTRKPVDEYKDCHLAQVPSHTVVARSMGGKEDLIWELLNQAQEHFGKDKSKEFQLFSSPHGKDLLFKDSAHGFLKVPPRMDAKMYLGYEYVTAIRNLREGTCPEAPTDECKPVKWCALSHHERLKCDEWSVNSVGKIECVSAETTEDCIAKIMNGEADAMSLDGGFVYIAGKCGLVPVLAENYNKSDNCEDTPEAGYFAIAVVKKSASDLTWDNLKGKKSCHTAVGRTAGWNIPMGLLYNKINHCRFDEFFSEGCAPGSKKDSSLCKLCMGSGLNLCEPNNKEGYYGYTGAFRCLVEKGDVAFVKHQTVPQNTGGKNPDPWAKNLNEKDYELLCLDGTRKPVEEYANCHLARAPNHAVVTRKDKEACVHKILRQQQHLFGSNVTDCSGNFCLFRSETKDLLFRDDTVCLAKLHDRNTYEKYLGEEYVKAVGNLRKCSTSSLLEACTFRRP
Procedure: Transferrin 25 μg/ml in immobilization buffer selected for correct pH was then applied 302 at a flow rate of 5 to 10 μl/min for a contact time of about 5 to 10 minutes, allowing the amine functionality on the transferrin 308 to displace the activated NHS ester and bond to the surface via an amide bond. Finally, ethylene diamine (1M ethylene diamine-HCl at pH 8.5) was applied 304 at a flow rate of 5 to 10 μl/min for a contact time of about 6 to 7 minutes to deactivate any remaining reactive groups on the dextran chip surface. Flow rates and contact times are adjusted as necessary to provide the surface concentration of target desired for the intended application, and may vary by target. In general, for evaluating whether binding occurs, it is preferable to immobilize a relatively large quantity of target, and higher flow rates and/or longer contact times may be used. For determining kinetics, it is preferable to limit the amount of target immobilized so as to minimize rebinding and avidity effects, and lower flow rates and/or contact times may be used.
Candidate affinity elements for the transferrin synbody TRF19, TRF21, TRF23, TRF24, TRF25, and TRF26 were individually evaluated for solution phase KD with respect to transferrin by SPR analysis. Because the off rates for these polypeptides were very high, KD values were estimated by measuring steady-state response for at least five concentrations in a two-fold dilution series, each concentration tested in duplicate. For each experiment, response data were processed using a reference surface to correct for bulk refractive index changes and any non-specific binding. Data were also double referenced using responses from blank running buffer injections. Each experiment was conducted at 25° C. using PBST (0.01M Phosphate Buffered Saline, 0.138M NaCl, 0.0027M KCl, 0.05% surfactant Tween20, pH 7.4) as the running buffer on a Biacore T100 instrument. Analytes were injected for 60 s at a flow rate of 30 μl/min. The antigen surfaces were regenerated with 30 s consecutive pulses of NaOH/NaCl (50 mM NaOH in 1M NaCl) and Glycine (10 mM glycine-HCl, pH 2.5).

Transferrin [5] = target: T2, Transferrin; assay: SPR analysis of peptide pairs for binding to distinct sites on target; conditions: peptides applied in 1:1 mixtures in pairs
Description: The transferrin target was immobilized on a Biacore T100 SPR chip, and candidate polypeptides were applied in 1:1 mixtures in pairs and response data obtained, in accordance with the methods described in Example 4 above. As illustrated in FIGS. 12A-D, upon flowing candidate polypeptides over the immobilized target, ideally one polypeptide applied alone would bind to a first binding site on the target and produce a first characteristic SPR response level (FIG. 12A), the other polypeptide would bind to a second, distinct binding site on the target, producing a second characteristic response level (FIG. 12B), and a mixture of the two polypeptides together (at the same concentrations as before) would produce a response level approximating the sum of the response levels produced by each polypeptide alone, as the polypeptides bind to distinct binding sites (FIG. 12C).

Transferrin [6] = target: T2, Transferrin; assay: Affinity characterization of TRF26 lead and selected mutants; format: binding
Procedure: Two TRF26 point-mutants (P6Y, H12F) were selected for further affinity characterization. The P6Y and H12F point-mutants have dissociation constants of 8.6±1.6 μM and 9.8±1.6 μM respectively. […] A TRF26 double mutant sequence containing the P6Y+H12F mutations was synthesized and characterized.

Transferrin [7] = target: T2, Transferrin; assay: Peptide microarray ranking, labeled transferrin with E. coli lysate competitor; format: binding
Procedure: Several polypeptides were identified as candidate affinity elements for synbodies against an arbitrarily chosen protein target, transferrin, by incubating transferrin on the polypeptide microarray in the presence of E. coli lysate competitor. Transferrin was randomly direct-labeled at free amines with Alexa™ 555, and E. coli lysate was randomly direct-labeled at free amines with Alexa™ 647. Three replicate arrays were passivized by applying a mixture of BSA and mercaptohexanol for one hour. The arrays were blocked with unlabelled E. coli lysate for one hour, then washed three times with TBST (0.05% Tween) followed by three times with water. A mixture of labeled transferrin and labeled E. coli lysate was applied to the three replicate arrays and incubated for three hours. The arrays were again washed three times with TBST (0.05% Tween) followed by three times with water, and scanned at 555 nm and 647 nm using an array reader. Polypeptides were ranked as candidates for inclusion as affinity elements of synbodies by computing a score for each polypeptide equal to the mean raw 555 nm intensity over the six replicate features, squared, divided by the mean raw 647 nm intensity over the six replicate features. This simple scoring function tends to favor candidate polypeptides that bind at least moderate affinity, since otherwise the 555 nm intensity would be relatively lower, and that are relatively specific, since otherwise the 647 nm intensity would be relatively higher and contribute to a relatively lower score. Many variations of this ranking and identification process can be used, such as, by way of non-limiting examples, two-color comparisons against other competitors; comparisons with data taken in separate experiments with respect to other targets; and use of scoring functions taking into account other factors, employing other functional relationships, and/or involving statistical analysis and/or preprocessing of data and/or correcting for background fluorescence and/or other factors affecting the accuracy of the measured intensities. Ten polypeptides (Table 1) were identified for further evaluation for use as affinity elements in synbodies by choosing the polypeptides having the highest score (one polypeptide was rejected as difficult to synthesize, so the polypeptides chosen were ten of those having the eleven highest scores).
After preparation of the array in accordance with the methods previously described in Example 2, the array was washed one time for five minutes in 7.33% acetonitrile, 37% isopropanol, 0.55% trifluoroacetic acid, and 55% water. Alexa 555 labeled target protein transferrin was applied, together with Alexa 647 labeled E. coli lysate competitor, to the prewashed array and to an identical array without organic prewash. […] 5,010 on the array without organic prewash, but ranked no. 9601 on the prewashed array. Conversely, peptide TRF-21, shown by SPR analysis to be a relatively strong binder of transferrin, rose in rank from 84 on the non-prewashed array to rank no. 5 on the prewashed array.

T1 sequence (P01375 77-233 limits assumed, species assumed): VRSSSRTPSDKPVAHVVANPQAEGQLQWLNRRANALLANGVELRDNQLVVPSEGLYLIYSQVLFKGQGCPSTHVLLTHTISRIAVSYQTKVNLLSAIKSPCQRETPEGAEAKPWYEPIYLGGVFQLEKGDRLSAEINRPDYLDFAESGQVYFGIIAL

Row | Sequence | Kd Fold-Change Relative to Lead (TNF-α [1]) | Kd (TNF-α [1]; SPR equilibrium binding response, read-out: Kd (observed)) [nM] | Binding ΔG (observed) (TNF-α [1]; calculated from dissociation constants) [kcal/mol] | Kd (TNF-α [1]; energetic additivity of component mutations, read-out: Predicted Kd) [nM] | Kd (TNF-α [2]) [nM] | Kd (TNF-α [3]) [nM] | Kd (Transferrin [4]) [µM] | binding to distinct sites on transferrin (Transferrin [5]) | Binding ΔG (observed) (Transferrin [6]) [kcal/mol] | Rank -- prewash (Transferrin [7]; array with organic prewash) | Rank - non-prewash (Transferrin [7]; array without organic prewash)
1 | FERSYLKMPWKFLQSRQGSC [TNF1-opt] | 100 ± 22 | 1600 ± 300 | -7.97 ± -0.11 | 700 to 1900 | 1100 ± 200 | 700 ± 20 | – | – | – | – | –
2 | AHKVVPQRQIRHAYNRYGSC [TRF26] | – | – | – | – | – | – | ~100 | bind distinct sites on transferrin | -5.56 ± 0.10 | 436 | 596
